Entries after “also recorded” stand apart in the source; their conditions may differ. Like-named read-outs stand apart in the source and are kept apart here.
Assays:
E8.0 embryos = assay: Whole embryo culture, primary lung bud and oesophagotracheal fold formation; assay type: cell-based, mouse
Description: Embryos were collected at E8.0 (i.e. 36 hours prior to the formation of primary lung buds and tracheal diverticulum; Kaufman, M. H., The Atlas of Mouse Development, London Academic Press (1992)), and cultured for 48 hours (i.e. until the equivalent of E9.5 in vivo) either in the presence of the pan-RAR antagonist, Compound VIII (Chazaud, C., et al., Development 126:2589-2596 (1999); Wendling, O., et al., Development 127:1553-62 (2000), or in the presence of the retinoid vehicle (i.e. ethanol alone). Treatment with 10^−6 M Compound VIII, inhibited primary lung bud outgrowth (FIGS. 1A-1D; l and r) and caused a failure of oesophagotracheal fold formation (arrowheads in FIG. 1F compare with FIG. 1G). […] Therefore, a block in RA signal transduction before and at the onset of lung bud appearance inhibits the formation of the respiratory system from the primitive foregut.
Whole embryos from CD 1×CD 1 crosses were collected at E8.0, staged and cultured according to previously described methods in the presence of retinoids or ethanol vehicle alone for 48 hours (New D.A.T., Postimplantation Mammalian Embryos: A Practical Approach, Cop, A. J. and Cockroft, D. L., eds., Oxford University Press (1990); Wendling, O., et al., Development 127:1553-62 (2000)). For morphological assessment, serial transverse histological sections were stained with hematoxylin and eosin.

E11.75 wild type lungs = assay: Lung explant culture, average terminal bud number (ATBN), wild type; assay type: cell-based, mouse; settings: for average terminal bud number (ATBN): 4 days in culture; for retinoid-induced changes in ATBN: 10^−6 M RA and 10^−6 M Compound VIII simultaneously added
Description: Lung explants from E11.75 or E12.5 embryos were cultured for 4 days, unless otherwise indicated. Control explants were cultured in the presence of the retinoid vehicle alone.
The mouse lines carrying the RARβ, RARγ and CRBPI null mutations and their genotyping protocols have been described previously (Lohnes, D., et al., Cell 73:643-658 (1993); Ghyselinck, N. B., et al., Int. J. Dev. Biol. 41:425-447 (1997); Ghyselinck, N. B., et al., EMBO J. 18:4903-4914 (1999)). The morning of appearance of the vaginal plug was designated as E0.5. For explant culture, E11.75 and E12.5 lungs from RARβ^+/−×RARβ^+/−, RARγ^+/−×RARγ^+/−, CRBPI^−/−×CRBPI^−/− and wildtype crosses were dissected in PBS and incubated in BGJB medium (Fitton-Jackson modified, GibcoBRL), 5% delipidated fetal calf serum (FCS, GibcoBRL) and […] vitamin C (Sigma) on millipore filters (GibcoBRL), at 37° C., in the presence of 5% CO2. Half of the media, supplemented with fresh retinoids (see below), was changed daily. The cultured lung buds reproducibly grew and branched for at least seven days in culture (data not shown). Average terminal bud number (ATBN) was calculated after counting every bud in each explant at 0, 24, 48, 72 and 96 hours after the commencement of culture. Significant differences in ATBN between different groups were determined by ANOVA and Newman-Keuls multiple comparison tests according to previously described methods (Motulsky, H., Intuitive Biostatistics, New York: Oxford University Press (1995)). The synthetic retinoid Compound VIII [a specific pan RAR (α, β and γ) antagonist (Bristol-Myers-Squibb, N.J.); Chazaud, C., et al., Development 126:2589-2596 (1999); Wendling, O., et al., Development 127:1553-62 (2000)] and RA (all-trans retinoic acid) (Sigma) were diluted in ethanol and added to the culture medium at a final ethanol concentration of 0.1% at the beginning of culture and every subsequent 24 hours.

RARβ transcripts = assay: RARβ expression in lung explants (whole-mount ISH, RNAse protection); assay type: cell-based, mouse; settings: for retinoid-induced changes in RARβ expression: 10^−6 M RA and 10^−6 M Compound VIII simultaneously added; for RARβ expression: 10^−6 M, E11.75 lung explants
Description: FIG. 3A. Whole-mount ISH for detection of RARβ transcripts following 24 hours of exposure of E11.75 lung explants to either retinoid vehicle alone, 10^−6 M RA or 10^−6 M Compound VIII.
FIG. 3B. RNAse protection analyses of RARβ 1/3/4, RARβ2 and vimentin transcripts in lungs explanted at E11.75 and cultured for four days in the presence of retinoids or ethanol; the explants were analyzed four hours after the last addition of the retinoids and/or ethanol to the culture media (2 μg RNA per track; exposure times, four to 24 hours).
The expression pattern of RARβ transcripts in E11.75 lung explants cultured for 24 hours in the absence of retinoids was similar to that observed in vivo at E13.5 (FIG. 3A). […] It is also noteworthy that only limited changes in the expression of vimentin, a specific mesenchymal marker, occurred following retinoid treatment (FIG. 3B). […] In order to investigate this possibility, we compared the effects of 10^−6 M RA upon ATBN in explants from RARβ null embryos (Ghyselinck, N. B., et al., Int. J. Dev. Biol. 41:425-447 (1997)), heterozygotesi and wild type littermates. […] The explants were then treated for 48 hours with 10^−6 M RA (FIG. 3C).
Total RNA preparation, RNAse protection assays and in situ hybridizations were performed as previously described (Chirgwin, J. M., et al., Biochemistry 18:5294-5299 (1979); Décimo, D., et al., “In situ hybridization of nucleic acid probes to cellular RNA,” in Gene Probes 2, A Practical Approach, Hames, B. D. and Higgins, S., eds.: Oxford University Press (1995) pp. 183-210; Mollard, R. and Dziadek, M., Int. J. Dev. Biol. 41:655-666 (1997); Ghyselinck, N. B., et al., Int. J. Dev. Biol. 41:425-447 (1997)). CRBPI, H4, RARβ and vimentin cDNAs have been previously described (Ghyselinck, N. B., et al., Int. J. Dev. Biol. 41:425-447 (1997); Mollard, R. and Dziadek, M., Int. J. Dev. Biol. 41:655-666 (1997)).

[1] = system: E12.5 RARγ wild type (+/+), heterozygote (+/−) and null (−/−) mutant lungs; assay: ATBN in RARγ wild type, heterozygote and null lung explants; assay type: cell-based, mouse; settings: 10^−6 M
Description: FIG. 4C. E12.5 RARγ wild type (+/+), heterozygote (+/−) and null (−/−) mutant lungs from RARγ^+/−/RARγ^+/−heterozygote crosses were cultured for 24 hours in the absence of retinoids and then for 72 hours in the presence of 10^−6M Compound VIII (seven explants per group, two individual experiments). […] Error bars represent +/− standard deviation. Scale bar=100 μm.
RARα1, RARα2 and RARγ2 transcripts are expressed ubiquitously in E13.5 lungs in vivo. […]
(§1) The mouse lines carrying the RARβ, RARγ and CRBPI null mutations and their genotyping protocols have been described previously (Lohnes, D., et al., Cell 73:643-658 (1993); Ghyselinck, N. B., et al., Int. J. Dev. Biol. 41:425-447 (1997); Ghyselinck, N. B., et al., EMBO J. 18:4903-4914 (1999)). […] Average terminal bud number (ATBN) was calculated after counting every bud in each explant at 0, 24, 48, 72 and 96 hours after the commencement of culture. Significant differences in ATBN between different groups were determined by ANOVA and Newman-Keuls multiple comparison tests according to previously described methods (Motulsky, H., Intuitive Biostatistics, New York: Oxford University Press (1995)). […]

CRBPI transcripts = assay: CRBPI expression in cultured lungs (RNAse protection); assay type: cell-based, mouse; settings: 10^−6 M, cultured E12.5 wild type lungs
Description: FIG. 5A. RNAse protection analysis of CRBPI transcripts in E11.75 wild type lungs cultured for four days in the presence of retinoids or ethanol; the explants were analyzed four hours after the last addition of the retinoids, and/or ethanol to the culture media (2 μg RNA per track; exposure times, four to 24 hours). Six experiments per group, 10 lungs per experiment.
The lung at the pseudoglandular stage is a major site of expression of CRBPI in the embryo (Dollé, P., et al., Development 110:1133-1151 (1990)). In cultured E12.5 wild type lungs, CRBPI expression was increased in the presence of 10^−6 M RA and decreased by 10^−6 M Compound VIII (FIG. 5A). Thus, increased and decreased expression of CRBPI are correlated with retinoid-induced inhibition and stimulation of branching, respectively. To further test an involvement of CRBPI in lung morphogenesis, explants from E12.5 CRBPI null mutants (Ghyselinck, N. B., et al., EMBO J. 18:4903-4914 (1999)) were cultured in the presence of various concentrations of the pan-RAR antagonist. […]

[2] = system: E12.5 CRBPI null mutant lungs; assay: ATBN in CRBPI null mutant lung explants; assay type: cell-based, mouse
Description: FIG. 5B. ATBN in CRBPI null mutant lungs cultured for four days in the presence of either ethanol alone (control), or 10^−6 M or 10^−7 M Compound VIII. Six explants per group, three individual experiments; * p<0.01 relative to control. Error bars represent +/− standard deviation.
The lung at the pseudoglandular stage is a major site of expression of CRBPI in the embryo (Dollé, P., et al., Development 110:1133-1151 (1990)). In cultured E12.5 wild type lungs, CRBPI expression was increased in the presence of 10^−6 M RA and decreased by 10^−6 M Compound VIII (FIG. 5A). […]
as §1

[3] = system: E12.5 RARβ wild type, heterozygote (+/−) and null (−/−) mutant lungs; assay: ATBN in lung explants from RARβ null, heterozygote and wild type littermates; assay type: cell-based, mouse; settings: 10^−6 M, 48 hours, vs RARβ+/− ethanol controls
Description: Appearance of representative E12.5 RARβ, heterozygote (+/−) and null (−/−) mutant lungs from RARβ^+/−/RARβ^+/− crosses, cultured for 24 hours in the absence of retinoids and then 48 hours in the presence of either vehicle alone or 10^−6 M RA. The accompanying histogram depicts ATBN versus treatment at 72 hours of culture; each group consists of seven explants and is representative of two individual experiments. b1=primary bronchi; b2=secondary bronchi; db=distal bud; m=mesenchyme; * p<0.01 relative to control. Error bars represent +/− standard deviation.
For explant culture, E11.75 and E12.5 lungs from RARβ^+/−×RARβ^+/−, RARγ^+/−×RARγ^+/−, CRBPI^−/−×CRBPI^−/− and wildtype crosses were dissected in PBS and incubated in BGJB medium (Fitton-Jackson modified, GibcoBRL), 5% delipidated fetal calf serum (FCS, GibcoBRL) and 180mg/ml vitamin C (Sigma) on millipore filters (GibcoBRL), at 37° C., in the presence of 5% CO2. Half of the media, supplemented with fresh retinoids (see below), was changed daily. […] Average terminal bud number (ATBN) was calculated after counting every bud in each explant at 0, 24, 48, 72 and 96 hours after the commencement of culture. Significant differences in ATBN between different groups were determined by ANOVA and Newman-Keuls multiple comparison tests according to previously described methods (Motulsky, H., Intuitive Biostatistics, New York: Oxford University Press (1995)).

pulmonary alveoli = settings: cited from earlier work; for number of pulmonary alveoli: postnatal treatment, newborn rats
lung cultures = settings: cited from earlier work
[4] = 10^−6 M, E8.0 embryos cultured 48 hours, vs ethanol vehicle

Question: What does the source list for `CC1(C)CC=C(C#Cc2ccccc2)c2cc(/C=C/c3ccc(C(=O)O)cc3)ccc21` [Compound VIII]?
Answer: oesophagotracheal fold formation (E8.0 embryos; [4]): failure; primary lung bud outgrowth (E8.0 embryos; [4]): inhibited; average terminal bud number (ATBN) (E11.75 wild type lungs; 2×10^−6 M): significantly increased; also recorded: significant increases; explant size and terminal bud numbers (E11.75 wild type lungs; 10^−6 M): Increased; retinoid-induced changes in ATBN (E11.75 wild type lungs): prevented; RA-induced decrease in ATBN (E11.75 wild type lungs; 10^−6 M and 10^−7 M RA with concomitant 10^−6 M Compound VIII): negated; average terminal bud number (ATBN) (E11.75 wild type lungs; 10^−6 M): significantly increased; also recorded: significant increases; average terminal bud number (ATBN) (E11.75 wild type lungs; 10^−7 M): ineffective; average terminal bud number (ATBN) (E11.75 wild type lungs; 10^−8 M): ineffective; retinoid-induced changes in RARβ expression (RARβ transcripts): prevented; RARβ expression (RARβ transcripts): decreased RARβ expression in secondary bronchi; differences in the stimulation of ATBN between RARγ genotype groups [1]: No significant differences; CRBPI expression (CRBPI transcripts): decreased; ATBN ([2]; CRBPI null lungs, 10^−7 M, four days): significant increase; sensitivity of CRBPI null lungs relative to wild type lungs to stimulation of distal bud formation ([2]; CRBPI null vs wild type lungs): approximately 10 fold

Question: Which “Compound VIII-induced defects of lung bud outgrowth and oesophagotracheal fold formation” value (E8.0 embryos; simultaneous addition of 10^−6 M Compound VIII and 10^−7 M RA, 48 hours) does the source give for `CC1=C(/C=C/C(C)=C/C=C/C(C)=C/C(=O)O)C(C)(C)CCC1` [RA, all-trans retinoic acid] here?
Answer: The value was “partially prevented”.

Question: And the “increased explant size and terminal bud numbers of Compound VIII treated explants” value (E11.75 wild type lungs; 10^−6 M Compound VIII with concomitant 10^−6 M RA)?
Answer: Its value is “reduced”.

Question: And the “retinoid-induced changes in ATBN” value (E11.75 wild type lungs)?
Answer: The value was “prevented”.

Question: What about the “average terminal bud number (ATBN)” value (E11.75 wild type lungs; 10^−6 M) of the same compound?
Answer: Its value is “significantly decreased; also recorded: significant decrease”.

Question: What about the “average terminal bud number (ATBN)” value (E11.75 wild type lungs; 10^−7 M) of the same compound?
Answer: Its value is “significantly decreased; also recorded: significant decrease”.

Question: And the “average terminal bud number (ATBN)” value (E11.75 wild type lungs; 10^−8 M)?
Answer: Its value is “ineffective”.

Question: What about the “retinoid-induced changes in RARβ expression” value (RARβ transcripts) of the same compound?
Answer: The value was “prevented”.

Question: And the RARβ expression (RARβ transcripts)?
Answer: Its RARβ expression is “induced the expression of RARβ throughout the pulmonary tree, including the distal buds”.

Question: And the ATBN ([3]; RARβ null explants)?
Answer: The ATBN was “no significant difference”.

Question: And the ATBN ([3]; RARβ+/− explants)?
Answer: The ATBN was “significant reduction”.

Question: And the ATBN ([3]; wild type explants)?
Answer: The ATBN was “significant reduction”.

Question: What about the CRBPI expression (CRBPI transcripts) of the same compound?
Answer: The CRBPI expression was “increased”.

Question: And the alveolar number (pulmonary alveoli; animal models of emphysema)?
Answer: The alveolar number was “restores”.

Question: And the “number of pulmonary alveoli” value (pulmonary alveoli)?
Answer: The value was “increases”.

Question: And the “number of pulmonary alveoli” value (pulmonary alveoli; listed as retinoic acid)?
Answer: Its value is “increase”.

Question: And the branching morphogenesis (lung cultures)?
Answer: The branching morphogenesis was “inhibitory effect”.

Reference: patent publication US20020048580A1, “Method of inducing lung branching” (Institut National De La Sante Et De La Recherche Medicale, priority 2000, published 2002)
